The results in this text go back to patent publication US10561736B1, “Apoptosis inhibitor formulations for prevention of hearing loss” (Spiral Therapeutics, Inc., priority 2019, dated 2020).

Converted amounts (≈) assume the structure as drawn. “Also recorded” adds a separate entry of the source. Like-named read-outs stand apart in the source and are kept apart here.

One series is described as follows: solubility. In kind it is physicochemical.
For series [1], the system named is bacterial reverse mutation. As to the kind of experiment: GLP in vitro bacterial reverse mutation assay (Ames test). In kind it is cell-based. Background: In the Ames test, an excess of revertant colonies over the control signals mutagenicity.
In series [2] the test system is BALB/c 3T3 mouse fibroblasts. The series is described as follows: in vitro phototoxicity. The class given is cell-based. Particulars: ≤100 μM. As to the method: An in vitro experiment was performed in BALB/c 3T3 mouse fibroblasts to determine the phototoxic potential of LPT99 at concentrations of ≤100 μM in 3T3 L1 cells.
A short description of series [3]: in vitro release assay from P407 hydrogel through dialysis membrane into artificial perilymph. In kind it is physicochemical. Particulars: 3500 Da dialysis membrane, 37° C. As to the method:
The in vitro release assay was performed using cellulose dialysis membranes of 3500 Da (OrDial D35-MWCO 3500, Orange Scientific) to simulate the round window membrane, located between the middle ear and the inner ear, as it is the first barrier for the drug to reach the inner ear where it will exert its pharmacological action. (See FIG. 1) Artificial perilymph (NaCl 137 mM, KCl 5 mM, CaCl2 2 mM, MgCl2 1 mM and NaHCO3 1 mM) was used to simulate the environment inside the inner ear, since this is the liquid that interact with the drug after crossing the round window. The assay was performed at 37° C., continuing with the simulation of ear conditions.
To prepare the release assay, ten (10) mL of the LPT99 loaded hydrogel was placed inside a 3500 Da dialysis membrane, the membrane with the hydrogel was introduced into a 100 ml borosilicate glass lab bottle and 30 ml of artificial perilymph was added. All samples were kept under magnetic stirring at 37° C. […]
Samples were taken at different time points (1 h, 3 h, 6 h, 1 day, 2 days, 3 days, 6 days, 7 days, 8 days, 9 days, 10 days, 13 days, 14 days and 15 days) at which time 5 mL were withdrawn with a graduated glass pipette and replaced with equivalent volume of artificial perilymph. The collected samples were analyzed to determine the amount of drug released from the hydrogel at each time point. […]

Series [4] in a line: cochlear distribution after IT administration (absorption). In kind it is in vivo. Particulars: rat; for concentration at 24 h: cochlea (cochlear homogenate), other: intratympanic (IT), read-out: mean cochlear LPT99 concentration; for peak mean cochlear LPT99 concentration: 1 hour. The text has this:
Cochleae were harvested and rinsed at several timepoints after intratympanic injection of drug product. Drug concentration (y axis) in cochlear homogenates is expressed as nanograms LPT99 per gram of cochlear homogenate. • (i) Absorption
LPT99 cochlear distribution after IT administration was studied in rats. […] LPT99 concentration was quantified with an ultra-performance liquid chromatography tandem mass spectrometry (UPLC-ESI/MS/MS) system.

The nature of series [5]: metabolic profile in hepatic fractions. In kind it is in vitro ADME, human, dog, rabbit, rat, and mouse. Particulars: phase I biotransformation pathways. As to the method: The metabolic profile and stability of LPT99 was characterized in human, dog, rabbit, rat, and mouse microsomal and S9 fractions, and in human cytosolic fractions. LPT99 was extensively metabolized (>90% metabolized after 1 hour) in microsomal and S9 hepatic fractions in all tested species. Up to nine (9) metabolites were formed through phase I biotransformation pathways. The most abundant metabolites were identified as single hydroxylation, double hydroxylation, and demethylation plus double hydroxylation. […] In the rabbit S9 fraction, the quantity of detected metabolites was less than in the human S9 fraction.

For `COc1ccc2[nH]cc(CCNC(=O)CC3C(=O)N(CCc4ccc(Cl)cc4Cl)CC(=O)N3CCc3cccs3)c2c1` (stereo not drawn) [LPT99, 2-(4-(2,4-dichlorophenethyl)-3,6-dioxo-1-(2-(thiophen-2-yl)ethyl)piperazin-2-yl)-N-(2-(5-methoxy-1H-indol-3-yl)ethyl)acetamide], in the series “solubility” (14.7 wt/wt % vehicle vs aqueous), the “increase in drug solubility” value was 332 fold. Further, the solubility in the series “solubility” (aqueous (not further specified), read-out: aqueous solubility) was 2.4 µM (≈ 1.51 µg/mL); in “solubility” (aqueous with cosolvent or surfactant or cyclodextrin, 14.7 wt/wt %, read-out: solubility in 14.7 wt/wt % vehicle) it was at least 797 µM. Besides, the “genetic toxicity (Ames test)” value in series [1] is recorded as “no evidence of genetic toxicity”. For the same molecule, the “cytotoxicity in the presence or absence of ultraviolet-visible irradiation” value in series [2] is “not cytotoxic”. Also, the phototoxicity result in series [2] is recorded as “not be phototoxic”. Also, the “LPT99 release from hydrogel over time” value in series [3] was “released in effective amounts for at least one week”. Moreover, the concentration at 24 h in series [4] (IT 50 μM) came to 1.8 ng/g; in series [4] (IT 100 μM), 13.9 ng/g; in series [4] (IT 200 μM), 13.4 ng/g. The “distribution after IT administration” value in series [4] (IT) was “distributes locally to the cochlea; also recorded: distributed to cochlea in a dose-dependent manner”. Moreover, the “peak mean cochlear LPT99 concentration” value came to 328.5 ng/g cochlea in series [4] (IT 50 μM), 491.3 ng/g cochlea in series [4] (IT 100 μM) and 611.1 ng/g cochlea in series [4] (IT 200 μM). Further, the “number of metabolites formed” value in series [5] is at most 9.
